According to US4446325A, “1,4-Dihydropyridine compounds” (priority 1981, dated 1984):

Assays:
coronary artery = assay: Blood flow increasing activity in coronary artery of anesthetized dog (intravenous); format: in vivo; details: i.v.
Procedure: (§1) A dog was anesthetized with pentobarital sodium at a dose of 30 mg/kg (intravenous injection) and, under artificial respiration, the blood flow in the coronary, vertebral and femoral arteries was determined using an electromagnetic blood-flow meter. The blood pressure was also measured simultaneously. The test compound was dissolved in ethanol at a concentration of 1% by weight of the compound and then diluted to a volume of 10 times with a 80% aqueous solution of polyethylene glycol 400. The resulting solution was further diluted with a 0.9% physiological saline solution and administered intravenously into the femoral vein at a dose shown in Tables 1 and 2.

vertebral artery = assay: Blood flow increasing activity in vertebral artery of anesthetized dog (intravenous); format: in vivo; details: i.v.
Procedure: as §1

femoral artery = assay: Blood flow increasing activity in femoral artery of anesthetized dog (intravenous); format: in vivo; details: i.v.
Procedure: as §1

[1] = test system: enucleated heart of guinea-pig; assay: Effect on heart systole, enucleated heart of guinea-pig (Langendorf method)
Procedure: (§2) The effects of the compounds of this invention on the heat systole and the perfusion volume in the coronary artery in enucleated heart of guinea-pig were determined in accordance with the Langendorf method.

[2] = test system: coronary artery in enucleated heart of guinea-pig; assay: Effect on perfusion volume in coronary artery, enucleated heart of guinea-pig (Langendorf method)
Procedure: as §2

[3] = Stability to light (sun light, quartz dish, visual appearance); format: physicochemical; set-up: key to Change in appearance on light exposure: (-): No change
in vivo = details: mouse, oral, ddy male mice, mortality one week after administration
[4] = test system: coronary, vertebral and femoral arteries; assay: Blood flow increasing / vasodilating activity in coronary, vertebral and femoral arteries (overall statements); format: in vivo, dog; details: Table 2
Procedure: as §1

blood pressure = assay: Blood pressure measured simultaneously with blood flow in anesthetized dog; format: in vivo; details: i.v.
Procedure: as §1

[5] = cited from earlier work
[6] = background statement; cited from earlier work
[7] = exposure for a total of 8 hours
[8] = 3 mg/kg, Table 2 (separate test)

Row | SMILES | Duration of Activity, Coronary Artery (coronary artery; 1 mg/kg, Table 1) | Total Increase in Blood Flow, Coronary Artery (coronary artery; 1 mg/kg, Table 1) | Duration of Activity, Coronary Artery (coronary artery; 3 mg/kg, Table 1) | Total Increase in Blood Flow, Coronary Artery (coronary artery; 3 mg/kg, Table 1) | Duration of Activity, Vertebral Artery (vertebral artery; 1 mg/kg, Table 1) | Total Increase in Blood Flow, Vertebral Artery (vertebral artery; 1 mg/kg, Table 1) | Duration of Activity, Vertebral Artery (vertebral artery; 3 mg/kg, Table 1) | Total Increase in Blood Flow, Vertebral Artery (vertebral artery; 3 mg/kg, Table 1) | Change in appearance on light exposure ([3]; 5 min. sun light) | Change in appearance on light exposure ([3]; 1 hour sun light) | Change in appearance on light exposure ([3]; 2 hours sun light) | Change in appearance on light exposure ([3]; 3 hours sun light) | changes on light exposure [3, 7] | Duration of Activity, Coronary Artery (coronary artery; [8]) | Total Increase in Blood Flow, Coronary Artery (coronary artery; [8]) | Duration of Activity, Vertebral Artery (vertebral artery; [8]) | Total Increase in Blood Flow, Vertebral Artery (vertebral artery; [8]) | Duration of Activity, Femoral Artery (femoral artery; [8]) | Total Increase in Blood Flow, Femoral Artery (femoral artery; [8]) | LD50 at 168 h (in vivo) | further results
1 | COC(=O)C1=C(C)NC(C)=C(C(=O)OCC2(C)OCCO2)C1c1cccc([N+](=O)[O-])c1 (stereo not drawn) [Compound A, Methyl 2,2-ethylenedioxypropyl 2,6-dimethyl-4-(3-nitrophenyl)-1,4-dihydropyridine-3,5-dicarboxylate] | 5.5 | 22 mL | 17.5 | 164 mL | 11.7 | 64 mL | 27.3 | 288 mL | (-) | (-) | (-) | (-) | did not show any changes |  |  |  |  |  |  |  | Duration of Activity, Femoral Artery (femoral artery; 1 mg/kg, Table 1): 9.0; Total Increase in Blood Flow, Femoral Artery (femoral artery; 1 mg/kg, Table 1): 104 mL; Duration of Activity, Femoral Artery (femoral artery; 3 mg/kg, Table 1): 19.3; Total Increase in Blood Flow, Femoral Artery (femoral artery; 3 mg/kg, Table 1): 316 mL; Effects on Heart Systole: Duration of Effect ([1]; dose 1 × 10^-6 g): 4.6 min; Effects on Heart Systole: Duration of Effect ([1]; dose 1 × 10^-7 g): 1.3 min; Effects on Coronary Artery: Duration of Effect ([2]; dose 1 × 10^-6 g): 34.6 min; Effects on Coronary Artery: Total Perfusion Volume ([2]; dose 1 × 10^-6 g): 737.8 drops; Effects on Coronary Artery: Duration of Effect ([2]; dose 1 × 10^-7 g): 15.6 min; Effects on Coronary Artery: Total Perfusion Volume ([2]; dose 1 × 10^-7 g): 165.0 drops
2 | COC(=O)C1=C(C)NC(C)=C(C(=O)OCC(C)=O)C1c1ccccc1[N+](=O)[O-] (stereo not drawn) [Compound B, Methyl 2-oxopropyl 2,6-dimethyl-4-(2-nitrophenyl)-1,4-dihydropyridine-3,5-dicarboxylate] | 10.0 | 37 mL | 35.0 | 392 mL | 7.5 | 29 mL | 35.5 | 309 mL |  |  |  |  |  |  |  |  |  |  |  |  | Duration of Activity, Femoral Artery (femoral artery; 1 mg/kg, Table 1): 4.0; Total Increase in Blood Flow, Femoral Artery (femoral artery; 1 mg/kg, Table 1): 20 mL; Duration of Activity, Femoral Artery (femoral artery; 3 mg/kg, Table 1): 58.5; Total Increase in Blood Flow, Femoral Artery (femoral artery; 3 mg/kg, Table 1): 774 mL
3 | COC(=O)C1=C(C)NC(C)=C(C(=O)OCC2CC2)C1c1cccc([N+](=O)[O-])c1 (stereo not drawn) [Compound C, Cyclopropylmethyl methyl 2,6-dimethyl-4-(3-nitrophenyl)-1,4-dihydropyridine-3,5-dicarboxylate] |  |  |  |  |  |  |  |  | (-) | (-) | (-) | (-) | did not show any changes | 49 | 580 mL | 37 | 463 mL | 26 | 367 mL | 1450 mg/kg | Duration of Activity, Coronary Artery (coronary artery; 10 mg/kg, Table 2): 66; Total Increase in Blood Flow, Coronary Artery (coronary artery; 10 mg/kg, Table 2): 2772 mL; Duration of Activity, Vertebral Artery (vertebral artery; 10 mg/kg, Table 2): 78; Total Increase in Blood Flow, Vertebral Artery (vertebral artery; 10 mg/kg, Table 2): 1691 mL; Duration of Activity, Femoral Artery (femoral artery; 10 mg/kg, Table 2): 60; Total Increase in Blood Flow, Femoral Artery (femoral artery; 10 mg/kg, Table 2): 811 mL; Change in appearance on light exposure ([3]; 8 hours sun light): (-); duration of vasodilation effect compared with Compound F [4]: significantly higher; vasodilation effect compared with Compound F [4]: significantly higher
4 | CCOC(=O)C1=C(C)NC(C)=C(C(=O)OCC2CC2)C1c1cccc([N+](=O)[O-])c1 (stereo not drawn) [Compound D, Cyclopropylmethyl ethyl 2,6-dimethyl-4-(3-nitrophenyl)-1,4-dihydropyridine-3,5-dicarboxylate] |  |  |  |  |  |  |  |  | (-) | (-) | (-) | (-) | did not show any changes | 32 | 308 mL | 17 | 212 mL | 16 | 173 mL | 2000 mg/kg | Change in appearance on light exposure ([3]; 8 hours sun light): (-)
5 | CCCOC(=O)C1=C(C)NC(C)=C(C(=O)OCC2CC2)C1c1cccc([N+](=O)[O-])c1 (stereo not drawn) [Compound E, Cyclopropylmethyl propyl 2,6-dimethyl-4-(3-nitrophenyl)-1,4-dihydropyridine-3,5-dicarboxylate] |  |  |  |  |  |  |  |  | (-) | (-) | (-) | (-) | did not show any changes | 22 | 148 mL | 19 | 262 mL | 20 | 285 mL | 2000 mg/kg | Change in appearance on light exposure ([3]; 8 hours sun light): (-)
6 | COC(=O)C1=C(C)NC(C)=C(C(=O)OCC(C)C)C1c1ccccc1[N+](=O)[O-] (stereo not drawn) [Compound F, Isobutyl methyl 2,6-dimethyl-4-(2-nitrophenyl)-1,4-dicarboxylate, reference compound] |  |  |  |  |  |  |  |  |  |  |  |  |  | 31 | 353 mL | 34 | 347 mL | 27 | 365 mL | 465 mg/kg | Duration of Activity, Coronary Artery (coronary artery; 10 mg/kg, Table 2): 55; Total Increase in Blood Flow, Coronary Artery (coronary artery; 10 mg/kg, Table 2): 863 mL; Duration of Activity, Femoral Artery (femoral artery; 10 mg/kg, Table 2): 58; Total Increase in Blood Flow, Femoral Artery (femoral artery; 10 mg/kg, Table 2): 874 mL; color changes on light exposure ([3]; 5 minutes' exposure): slight color changes; changes on light exposure ([3]; after more than 5 minutes' exposure ("thereafter")): marked changes
7 | COC(=O)C1=C(C)NC(C)=C(C(=O)OC)C1c1ccccc1[N+](=O)[O-] [Compound H, Dimethyl 2,6-dimethyl-4-(2-nitrophenyl)-1,4-dihydropyridine-3,5-dicarboxylate, reference compound] | 3.9 | 30 mL | 9.3 | 107 mL | 8.0 | 66 mL | 16.0 | 190 mL |  |  |  |  |  | 11 | 146 mL | 15 | 131 mL | 12 | 119 mL |  | Duration of Activity, Coronary Artery (coronary artery; 10 mg/kg, Table 2): 40; Total Increase in Blood Flow, Coronary Artery (coronary artery; 10 mg/kg, Table 2): 536 mL; Duration of Activity, Vertebral Artery (vertebral artery; 10 mg/kg, Table 2): 46; Total Increase in Blood Flow, Vertebral Artery (vertebral artery; 10 mg/kg, Table 2): 640 mL; Duration of Activity, Femoral Artery (femoral artery; 1 mg/kg, Table 1): 6.0; Total Increase in Blood Flow, Femoral Artery (femoral artery; 1 mg/kg, Table 1): 34 mL; Duration of Activity, Femoral Artery (femoral artery; 3 mg/kg, Table 1): 21.5; Total Increase in Blood Flow, Femoral Artery (femoral artery; 3 mg/kg, Table 1): 618 mL; Duration of Activity, Femoral Artery (femoral artery; 10 mg/kg, Table 2): 54; Total Increase in Blood Flow, Femoral Artery (femoral artery; 10 mg/kg, Table 2): 825 mL; blood pressure lowering activity (blood pressure): found to have a blood pressure lowering activity; Effects on Heart Systole: Duration of Effect ([1]; dose 1 × 10^-6 g): 14.5 min; Effects on Heart Systole: Duration of Effect ([1]; dose 1 × 10^-7 g): 2.9 min; Effects on Coronary Artery: Duration of Effect ([2]; dose 1 × 10^-6 g): 21.3 min; Effects on Coronary Artery: Total Perfusion Volume ([2]; dose 1 × 10^-6 g): 192.8 drops; Effects on Coronary Artery: Duration of Effect ([2]; dose 1 × 10^-7 g): 17.2 min; Effects on Coronary Artery: Total Perfusion Volume ([2]; dose 1 × 10^-7 g): 91.2 drops; duration of vasodilating activity ([5]; background statement): still unsatisfactory; side-effects [6]: still unsatisfactory
8 | CCOC(=O)C1=C(C)NC(C)=C(C(=O)OC2CCCCC2)C1c1cccc([N+](=O)[O-])c1 (stereo not drawn) [cyclohexyl ethyl 2,6-dimethyl-4-(3-nitrophenyl)-1,4-dihydropyridine-3,5-dicarboxylate] |  |  |  |  |  |  |  |  |  |  |  |  |  |  |  |  |  |  |  |  | activities, reported ([5]; German OLS Nos. 2,117,571 and 2,117,573): weak activities
